According to PubChem BioAssay AID248 (DTP/NCI, 2004):
Where “and” joins values, the source holds several entries; their conditions need not be identical. Equal entries are not always repeated. Inconclusive results and toxic doses are left out. No stated cut-off is given here; in the data, active means T/C of 150% or more; inactive means T/C below 125%.

Tested on: L1210 leukemia ip in BDF1 mice, survival T/C
Experiment: NCI In Vivo Anticancer Drug Screen. Data for tumor model L1210 Leukemia (intraperitoneal) in B6D2F1 (BDF1) mice
Details: endpoint: mean survival time, higher = longer survival
In short: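 Antitumor effect is assessed in tumor-bearing animals. Survival in the compound arm is compared with a vehicle-dosed control arm and expressed as their quotient.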

[1] = dose: 100.0 mg/kg/injection, schedule: Q04DX002 (ip), vehicle: Klucel (hydroxypropylcellulose) (HPC)
[2] = dose: 400.0 mg/kg/injection, schedule: Q04DX002 (ip), vehicle: Klucel (hydroxypropylcellulose) (HPC)
[3] = dose: 100.0 mg/kg/injection, schedule: Q04DX002 (ip), vehicle: saline

Measured: T/C

CCOC(=O)C1(C(C)C)OC2(O)CCCCN2C1=O (stereo not given)
inactive: dose: 12.5 mg/kg/injection, schedule: Q04DX003 (ip), vehicle: alcohol 106 % of control | dose: 25.0 mg/kg/injection, schedule: Q04DX003 (ip), vehicle: alcohol 104 % of control | dose: 50.0 mg/kg/injection, schedule: Q04DX003 (ip), vehicle: alcohol 113 % of control | dose: 100.0 mg/kg/injection, schedule: Q04DX003 (ip), vehicle: alcohol 101 % of control

O=C(NC(CO)CCCO)c1ccc([N+](=O)[O-])cc1 (stereo not given)
inactive: dose: 100.0 mg/kg/injection, schedule: Q04DX003 (ip), vehicle: Klucel (hydroxypropylcellulose) (HPC) 108 % of control | dose: 200.0 mg/kg/injection, schedule: Q04DX003 (ip), vehicle: Klucel (hydroxypropylcellulose) (HPC) 86 % of control | dose: 400.0 mg/kg/injection, schedule: Q04DX003 (ip), vehicle: Klucel (hydroxypropylcellulose) (HPC) 96 % of control

Cc1cc(O)c(C(C)C)cc1C1=NCC(C)S1 (stereo not given)
inactive: dose: 100.0 mg/kg/injection, schedule: Q01DX005 (ip), vehicle: Klucel (hydroxypropylcellulose) (HPC) 93 % of control | dose: 100.0 mg/kg/injection, schedule: Q01DX009 (ip), vehicle: Klucel (hydroxypropylcellulose) (HPC) 102 % of control | [1] 100 % of control | dose: 200.0 mg/kg/injection, schedule: Q01DX005 (ip), vehicle: Klucel (hydroxypropylcellulose) (HPC) 90 % of control | dose: 200.0 mg/kg/injection, schedule: Q01DX009 (ip), vehicle: Klucel (hydroxypropylcellulose) (HPC) 102 % of control | dose: 200.0 mg/kg/injection, schedule: Q04DX002 (ip), vehicle: Klucel (hydroxypropylcellulose) (HPC) 104 % of control | dose: 400.0 mg/kg/injection, schedule: Q01DX005 (ip), vehicle: Klucel (hydroxypropylcellulose) (HPC) 97 % of control | dose: 400.0 mg/kg/injection, schedule: Q01DX009 (ip), vehicle: Klucel (hydroxypropylcellulose) (HPC) 87 % of control | [2] 107 % of control

Cc1cc(S(=O)(=O)F)ccc1NC(=O)Oc1ccccc1
inactive: dose: 100.0 mg/kg/injection, schedule: Q04DX003 (ip), vehicle: gum acacia 95 % of control | dose: 200.0 mg/kg/injection, schedule: Q04DX003 (ip), vehicle: gum acacia 104 % of control | dose: 400.0 mg/kg/injection, schedule: Q04DX003 (ip), vehicle: gum acacia 87 % of control

N#CC(c1ccccc1)C(O)(c1ccccc1)c1ccccc1 (stereo not given)
inactive: dose: 50.0 mg/kg/injection, schedule: Q01DX001 (ip), vehicle: saline 98 % of control | dose: 100.0 mg/kg/injection, schedule: Q01DX001 (ip), vehicle: saline 98 % of control | dose: 200.0 mg/kg/injection, schedule: Q01DX001 (ip), vehicle: saline 93 % of control | dose: 400.0 mg/kg/injection, schedule: Q01DX001 (ip), vehicle: saline 91 % of control

Cc1c2oc3c(C)ccc(C(=O)NC4C(=O)NC(C(C)C)C(=O)N5CCCC5C(=O)N(C)CC(=O)N(C)C(C(C)C)C(=O)OC4C)c3nc-2c(C(=O)NC2C(=O)NC(C(C)C)C(=O)N3CCCC3C(=O)N(C)CC(=O)N(C)C(C(C)C)C(=O)OC2C)cc1=O (stereo not given)
inactive: dose: 0.1 mg/kg/injection, schedule: Q01DX009 (ip), vehicle: saline + alcohol 101 % of control | dose: 0.2 mg/kg/injection, schedule: Q01DX001 (ip), vehicle: saline + alcohol 102 % of control | dose: 0.2 mg/kg/injection, schedule: Q01DX009 (ip), vehicle: saline + alcohol 107 % of control | dose: 0.25 mg/kg/injection, schedule: Q01DX009 (ip), vehicle: saline + alcohol 101 % of control | dose: 0.4 mg/kg/injection, schedule: Q01DX001 (ip), vehicle: saline + alcohol 104 % of control | dose: 0.4 mg/kg/injection, schedule: Q01DX009 (ip), vehicle: saline + alcohol 112 % of control | dose: 0.5 mg/kg/injection, schedule: Q01DX009 (ip), vehicle: saline + alcohol 97 % of control | dose: 0.6 mg/kg/injection, schedule: Q04DX003 (ip), vehicle: saline + alcohol 101 % of control | dose: 0.8 mg/kg/injection, schedule: Q01DX001 (ip), vehicle: saline + alcohol 104 % of control | dose: 1.0 mg/kg/injection, schedule: Q01DX009 (ip), vehicle: saline + alcohol 93 % of control | dose: 1.2 mg/kg/injection, schedule: Q04DX003 (ip), vehicle: saline + alcohol 109 % of control | dose: 1.25 mg/kg/injection, schedule: Q04DX003 (ip), vehicle: saline + alcohol 96 % of control | dose: 1.6 mg/kg/injection, schedule: Q01DX001 (ip), vehicle: saline + alcohol 106 % of control | dose: 2.0 mg/kg/injection, schedule: Q01DX009 (ip), vehicle: saline + alcohol 106 % of control | dose: 2.4 mg/kg/injection, schedule: Q04DX003 (ip), vehicle: saline + alcohol 119 % of control | dose: 2.5 mg/kg/injection, schedule: Q04DX003 (ip), vehicle: saline + alcohol 97 % of control | dose: 3.2 mg/kg/injection, schedule: Q01DX001 (ip), vehicle: saline + alcohol 111 % of control | dose: 4.0 mg/kg/injection, schedule: Q01DX009 (ip), vehicle: saline + alcohol 103 % of control | dose: 5.0 mg/kg/injection, schedule: Q04DX003 (ip), vehicle: saline + alcohol 105 % of control | dose: 6.4 mg/kg/injection, schedule: Q01DX001 (ip), vehicle: saline + alcohol 117 % of control | dose: 10.0 mg/kg/injection, schedule: Q04DX003 (ip), vehicle: saline + alcohol 106 % of control | dose: 20.0 mg/kg/injection, schedule: Q04DX003 (ip), vehicle: saline + alcohol 116 % of control | dose: 12.5 micrograms/kg/injection, schedule: Q01DX009 (ip), vehicle: saline + alcohol 101 % of control | dose: 50.0 micrograms/kg/injection, schedule: Q01DX009 (ip), vehicle: saline + alcohol 103 % of control | dose: 75.0 micrograms/kg/injection, schedule: Q04DX003 (ip), vehicle: saline + alcohol 104 % of control | dose: 150.0 micrograms/kg/injection, schedule: Q04DX003 (ip), vehicle: saline + alcohol 102 % of control | dose: 300.0 micrograms/kg/injection, schedule: Q04DX003 (ip), vehicle: saline + alcohol 106 % of control

COCC(=O)Oc1cc(-c2ccc(C)cc2C)c(OC(=O)COC)c(-c2ccc(C)cc2C)c1
inactive: dose: 75.0 mg/kg/injection, schedule: Q04DX003 (ip), vehicle: Klucel (hydroxypropylcellulose) (HPC) 90 % of control | dose: 100.0 mg/kg/injection, schedule: Q01DX001 (ip), vehicle: Klucel (hydroxypropylcellulose) (HPC) 90 % of control | dose: 150.0 mg/kg/injection, schedule: Q04DX003 (ip), vehicle: Klucel (hydroxypropylcellulose) (HPC) 87 % of control | dose: 200.0 mg/kg/injection, schedule: Q01DX001 (ip), vehicle: Klucel (hydroxypropylcellulose) (HPC) 91 % of control | dose: 300.0 mg/kg/injection, schedule: Q04DX003 (ip), vehicle: Klucel (hydroxypropylcellulose) (HPC) 93 % of control and 94 % of control | dose: 400.0 mg/kg/injection, schedule: Q01DX001 (ip), vehicle: Klucel (hydroxypropylcellulose) (HPC) 101 % of control

CCOC(=O)C(C)(C)CN(C)CC(C)(C)C=O
inactive: [3] 97 % of control | dose: 200.0 mg/kg/injection, schedule: Q04DX002 (ip), vehicle: saline 108 % of control | dose: 400.0 mg/kg/injection, schedule: Q04DX002 (ip), vehicle: saline 101 % of control

C=CC1CC=CCC1 (stereo not given)
inactive: dose: 100.0 mg/kg/injection, schedule: Q04DX003 (ip), vehicle: saline with Tween-80 98 % of control | dose: 200.0 mg/kg/injection, schedule: Q04DX003 (ip), vehicle: saline with Tween-80 97 % of control | dose: 400.0 mg/kg/injection, schedule: Q04DX003 (ip), vehicle: saline with Tween-80 102 % of control

COc1ccc(C2(SCC(N)C(=O)O)c3ccccc3-c3ccccc32)cc1 (stereo not given)
inactive: dose: 25.0 mg/kg/injection, schedule: Q01DX009 (ip), vehicle: saline 101 % of control | dose: 50.0 mg/kg/injection, schedule: Q01DX009 (ip), vehicle: saline 98 % of control | dose: 100.0 mg/kg/injection, schedule: Q01DX009 (ip), vehicle: saline 95 % of control | dose: 200.0 mg/kg/injection, schedule: Q01DX009 (ip), vehicle: saline 93 % of control | dose: 300.0 mg/kg/injection, schedule: Q01DX009 (ip), vehicle: saline 98 % of control | dose: 400.0 mg/kg/injection, schedule: Q01DX009 (ip), vehicle: saline 102 % of control

Fc1ccc(F)c(-c2c(F)ccc(F)c2F)c1F
inactive: dose: 25.6 mg/kg/injection, schedule: Q04DX002 (ip), vehicle: saline with Tween-80 100 % of control | dose: 64.0 mg/kg/injection, schedule: Q04DX002 (ip), vehicle: saline with Tween-80 113 % of control | dose: 160.0 mg/kg/injection, schedule: Q04DX002 (ip), vehicle: saline with Tween-80 95 % of control | dose: 400.0 mg/kg/injection, schedule: Q04DX002 (ip), vehicle: saline with Tween-80 103 % of control

CCOC(=O)NOP(=O)(N1CC1)N1CC1
active: [3] 153 % of control

CCC[CH2][Sn]([I])([CH2]C)[CH2]C
inactive: [1] 90 % of control | [2] 101 % of control
